Patent US20230133761A1, “INHIBITION OF FKBP1A FOR THE TREATMENT OF TRIPLE-NEGATIVE MAMMARY CARCINOMA” (Heinrich-Heine-Universität Düsseldorf, priority 2020, published 2023)
Values belong to the compound of their own block, whether it stands above or below them.

What was measured:
[1] = test system: triple-negative mammary carcinoma; assay: Combined inhibition of FKBP1A and PIN1 in triple-negative mammary carcinoma (tumor stem cell character, apoptosis induction); assay type: cell-based; conditions: FKBP1A-specific siRNA and co-incubation with ATRA
FKBP1A = target: T1, FKBP1A (Homo sapiens, UniProt P62942); assay: Anti-tumor effect on tumor stem cell and EMT markers by PROTAC-mediated FKBP1A expression reduction; assay type: cell-based
T1 construct: The cells were then washed with PBS, lysed and the expression of FKBP1A was analyzed by western blotting; endogenous in cells; host or cells: MDA-MB-231
T1 sequence (P62942 whole entry): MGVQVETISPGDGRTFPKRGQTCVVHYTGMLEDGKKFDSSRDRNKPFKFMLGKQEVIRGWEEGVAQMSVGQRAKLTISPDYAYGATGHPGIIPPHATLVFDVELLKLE

breast tumor xenograft = conditions: in vivo; cited from earlier work
[2] = test system: SFRP2 and VEGF-stimulated in vitro tube formation; conditions: cited from earlier work
[3] = test system: endothelial and breast cancer cells; conditions: cited from earlier work

Structure (SMILES): CC1=C(/C=C/C(C)=C/C=C/C(C)=C/C(=O)O)C(C)(C)CCC1 [ATRA, all-trans retinoic acid]
Effect on reduction of tumor stem cell character and ability to induce apoptosis [1]: strong synergistic effect

Anti-tumor effect on tumor stem cell and EMT markers compared to pure inhibition of the enzyme function of FKBP1A (FKBP1A): stronger anti-tumor effect
Structure (SMILES): CO[C@H]1C[C@@H]2CC[C@@H](C)[C@@](O)(O2)C(=O)C(=O)N2CCCC[C@H]2C(=O)O[C@H]([C@H](C)C[C@@H]2CC[C@@H](OCCOCc3cn(CCOCCOCCNc4cccc5c4C(=O)N(C4CCC(=O)NC4=O)C5=O)nn3)[C@H](OC)C2)CC(=O)[C@H](C)/C=C(\C)[C@@H](O)[C@@H](OC)C(=O)[C@H](C)C[C@H](C)/C=C/C=C/C=C/1C (some centres unmarked) [FKBP12 PROTAC RC32]

Structure (SMILES): C=CC[C@@H]1/C=C(\C)C[C@H](C)C[C@H](OC)[C@H]2O[C@@](O)(C(=O)C(=O)N3CCCC[C@H]3C(=O)O[C@H](/C(C)=C/[C@@H]3CC[C@@H](O)[C@H](OC)C3)[C@H](C)[C@@H](O)CC1=O)[C@H](C)C[C@@H]2OC [tacrolimus]
Breast tumor xenograft growth (breast tumor xenograft): attenuates breast tumor xenograft growth in vivo
SFRP2 and VEGF-stimulated in vitro tube formation [2]: inhibit SFRP2 and VEGF-stimulated in vitro tube formation
Migration of endothelial and breast cancer cells [3]: inhibit the migration of endothelial and breast cancer cells
